# Experimental data from patent US10952390B2, “Catnip cultivar ‘CR3’” (Rutgers, The State University of New Jersey, priority 2016, dated 2021).
# Assays:
# Assay type in all cases: in vivo
# [1] = test system: Aedes aegypti; test: one-choice mosquito landing rate inhibition assay
# Protocol: The clonal population serving as source material for the essential oil was the ‘CR3’ cultivar. The hydro-distilled essential oil from this population was used as the source for the crude essential oil treatment and was partitioned for subsequent fractionation and nepetalactone purification. The clones were transplanted to the field. Immediately before the plants were in full flower, they were harvested and dried at 37° C. with an onsite Powell walk-in forced air heat dryer kept under low heat conditions. Once the plants had lost all moisture, under the temperature and pressure conditions, the leaves and flowers were separated from the stems for hydro-distillation. Essential oils were extracted by hydro-distilling 60 g of dried N. cataria leaves and flowers. They were distilled in a 2 L round bottom flask for 3 hours in 1 L of water and the essential oil was collected in a Clevenger-type trap. The essential oils were then prepared and analyzed by GC/MS. The CR3 essential oil contained about 29% Z, E-nepetalactone and about 59% E, Z-nepetalactone (% of the total essential oil). […]
# (§1) Repellency was determined by a one-choice landing assay that uses the amount of mosquito landings to calculate the overall effectiveness of the candidate repellent. […] Time lapse photography recorded one image every five seconds. […]
# [2] = test system: Ixodes scapularis; test: one-choice tick filter paper repellency assay (petri dish arena); conditions: I. scapularis, 15 minutes, three replicates
# Protocol: (§2) An arena was constructed out of petri dishes to establish a dose response curve of a repellent ('CR3′ essential oil or DEET) filter paper by monitoring the total amount of tick positions over 15 minutes (1 image every 15 sec) and calculating percent repellency. ‘CR3’ oils were extracted with acetone as described in Example 3. In a one-choice assay, the repellent was applied to half of the filter paper and placed into the petri dish where the ticks are placed, the petri dish cover applied, and the number of ticks counted applied to the repellent zone. In the two-choice repellency test (see FIG. 6), DEET and a repellent (‘CR3’ essential oil) were applied to different sides of the filter paper and the ticks are counted in reference to the test repellent, not DEET. Total Tick positions=(# ticks in petri dish)×(60 images) Percent repellency=[(# of ticks in the repellent zone)/(Total Tick positions)]*100 Three replicates were performed for each treatment. Complete repellency was defined as repelling greater than 95% of the ticks.
# [3] = test system: Dermacentor variabilis; test: as above; conditions: D. variabilis, 15 minutes, three replicates
# Protocol: as §2
# [4] = test system: Anopholes gambiae; test: one-choice mosquito landing rate inhibition assay
# Protocol: The clonal population serving as source material for the essential oil was the ‘CR3’ cultivar. The hydro-distilled essential oil from this population was used as the source for the crude essential oil treatment and was partitioned for subsequent fractionation and nepetalactone purification. The clones were transplanted to the field. Immediately before the plants were in full flower, they were harvested and dried at 37° C. with an onsite Powell walk-in forced air heat dryer kept under low heat conditions. Once the plants had lost all moisture, under the temperature and pressure conditions, the leaves and flowers were separated from the stems for hydro-distillation. Essential oils were extracted by hydro-distilling 60 g of dried N. cataria leaves and flowers. They were distilled in a 2 L round bottom flask for 3 hours in 1 L of water and the essential oil was collected in a Clevenger-type trap. The essential oils were then prepared and analyzed by GC/MS. The CR3 essential oil contained about 29% Z, E-nepetalactone and about 59% E, Z-nepetalactone (% of the total essential oil).
# as §1
# [5] = 0.01% of the treatment applied to the filter paper
smiles,measurement,setting,value
CCN(CC)C(=O)c1cccc(C)c1 [DEET],reduction of A. aegypti landing,[1]; [5],about 32%
same,decrease of mosquito landings (repellency),"[1]; A. aegypti, treatment at 1% on filter paper",> 95%
same,percent repellency,[2]; applied at 0.1%,59.16±8.94
same,percent repellency,[2]; applied at 1%,99.79±0.36
same,percent repellency,[3]; applied at 0.1%,86.06±10.2
same,percent repellency,[3]; applied at 1%,99.31±1.00
same,reduction of A. gambiae landing,[4]; [5],about 35%
same,decrease of mosquito landings (repellency),"[4]; A. gambiae, treatment at 1% on filter paper",> 95%
